Experimental findings from patent US11679109B2, “SMARCA degraders and uses thereof” (Kymera Therapeutics, Inc., priority 2019, dated 2023) are described below.

Holding throughout (assay type): cell-based
For assay [1], the target named is T1, SMARCA2 (Homo sapiens, UniProt P51531). Put plainly: MSD SMARCA2 degradation in A549 cell line. As to conditions: A549 cells, 24 h; for DC50: read-out: SMARCA2 MSD A549 degradation 24 h: Average external-Abs DC50. On the procedure: Cells were seeded into 96-well plates (A549 cells: 2×10^4 cells/well/100 ul media) and incubated overnight. The next day, 200 nL compound were added into the intermediate plate with Echo (Labcyte 550) from source plate containing a 3-fold serial dilution from top concentration of 1 mM. The culture medium was changed with 80 ul of fresh medium and 80 uL of 2× compound solution was added into the well to make a final concentration of 1000 nM, 333.3 nM, 111.1 nM, 37.04 nM, 12.35 nM, 4.115 nM, 1.372 nM, 0.457 nM, 0.152 nM and 0 nM (DMSO). The wells were mixed and then incubated for 24 hours. The media was aspirated from the cultures and 60 ul pre-chilled PIPA lysis buffer (Boston BioProducts BP-115D) with protease/phosphatase inhibitor (Roche 05892791001/Roche 04906837001) was added into the well to lyze the cells for 20 minutes at 4° C. The MSD plate (L15XA) was coated with 40 uL cell lysate and incubated at 4° C. overnight. The next day, the plate was washed three times with TBST (CST #9997S), 150 ul/well. The MSD plates was blocked with 150 ul blocking buffer per well and shaked for 1 hr at RT, 600 rpm. The blocking buffer was 3% Blocker A (MSD, R93BA-4) in TBST. The MSD plate was washed three times with 150 uL/well of TBST and 25 ul/well of detection antibody (Rabbit anti-SMARCA2/BRM antibody, 100 μg/mL, ab223735) was added at final concentration of 1 ug/mL diluted in 1% Blocking buffer and shaken for 1 hour at RT, 600 rpm. The MSD plate was washed three times with 150 ul/well of TBST and 25 ul/well of SULFO-TAG anti-rabbit antibody (MSD, R32AB-1) was added at final concentration of 1 ug/ml diluted in 1% Blocking buffer and shaken for 1 hour at RT, 600 rpm. The MSD plate was washed three times with 150 uL/well of TBST and 150 ul/well of 2×MSD reading buffer diluted from 4× (MSD, R92TC-2) with water was added. Lastly, the MSD instrument was read.
T1 sequence (P51531 whole entry): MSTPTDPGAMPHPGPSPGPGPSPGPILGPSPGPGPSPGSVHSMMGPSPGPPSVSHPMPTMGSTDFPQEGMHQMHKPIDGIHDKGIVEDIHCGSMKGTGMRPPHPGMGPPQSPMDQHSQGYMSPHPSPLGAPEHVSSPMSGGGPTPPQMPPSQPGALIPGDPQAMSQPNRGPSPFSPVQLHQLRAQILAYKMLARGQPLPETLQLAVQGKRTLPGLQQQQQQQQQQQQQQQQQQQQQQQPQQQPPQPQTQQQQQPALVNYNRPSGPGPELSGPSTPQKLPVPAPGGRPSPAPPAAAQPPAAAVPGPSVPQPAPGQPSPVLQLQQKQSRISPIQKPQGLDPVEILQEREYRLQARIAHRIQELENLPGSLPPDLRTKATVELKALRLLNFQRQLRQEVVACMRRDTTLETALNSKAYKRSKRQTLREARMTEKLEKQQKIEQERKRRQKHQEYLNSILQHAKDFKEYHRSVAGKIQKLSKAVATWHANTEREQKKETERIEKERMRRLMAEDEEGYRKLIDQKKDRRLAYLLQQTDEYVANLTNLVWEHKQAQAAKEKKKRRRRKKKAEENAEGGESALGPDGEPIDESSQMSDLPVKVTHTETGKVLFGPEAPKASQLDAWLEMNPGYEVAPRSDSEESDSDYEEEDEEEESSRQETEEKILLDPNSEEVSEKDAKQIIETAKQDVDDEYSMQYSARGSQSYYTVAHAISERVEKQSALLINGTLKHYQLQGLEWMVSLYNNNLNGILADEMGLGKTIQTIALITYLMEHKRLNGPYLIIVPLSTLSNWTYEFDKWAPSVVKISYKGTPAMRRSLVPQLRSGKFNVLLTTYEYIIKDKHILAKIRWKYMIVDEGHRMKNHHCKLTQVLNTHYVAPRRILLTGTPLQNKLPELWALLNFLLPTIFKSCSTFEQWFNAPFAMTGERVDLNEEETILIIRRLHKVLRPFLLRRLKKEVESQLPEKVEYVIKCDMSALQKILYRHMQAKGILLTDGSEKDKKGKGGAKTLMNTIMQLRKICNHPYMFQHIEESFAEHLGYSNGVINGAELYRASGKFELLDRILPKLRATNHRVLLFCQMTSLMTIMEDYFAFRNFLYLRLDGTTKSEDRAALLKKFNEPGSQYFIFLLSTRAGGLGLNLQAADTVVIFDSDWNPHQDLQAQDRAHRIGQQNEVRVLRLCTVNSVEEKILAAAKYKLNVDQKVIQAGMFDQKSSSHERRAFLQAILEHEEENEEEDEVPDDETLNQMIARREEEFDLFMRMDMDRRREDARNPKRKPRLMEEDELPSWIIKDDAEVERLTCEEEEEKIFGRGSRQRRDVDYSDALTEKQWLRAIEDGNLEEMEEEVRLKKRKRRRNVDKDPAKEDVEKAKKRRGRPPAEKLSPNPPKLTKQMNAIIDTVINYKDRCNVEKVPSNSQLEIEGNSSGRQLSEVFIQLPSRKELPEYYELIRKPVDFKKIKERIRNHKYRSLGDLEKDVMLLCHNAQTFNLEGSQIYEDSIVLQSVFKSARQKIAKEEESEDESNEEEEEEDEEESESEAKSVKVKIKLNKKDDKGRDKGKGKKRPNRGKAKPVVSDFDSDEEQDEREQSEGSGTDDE
The letter codes for SMARCA2 degradation potency (DC50) include: A (<100 nM), B (100-500 nM), C (501-1000 nM), and D (>1000 nM). The letter codes for the percentage of SMARCA degradation after 24 hours (Dmax %) include: A (>90% degradation), B (>70-90% degradation), C (50-70% degradation), and D (<50% degradation).

For assay [2], the target named is T1, SMARCA2. The assay can be described thus: SMARCA2 Western blot MV4-11 degradation. More on the design: SMARCA2/SMARCA4 protein degradation selectivity in MV4-11 cells; endogenous in cells; host or cells: MV4-11. The following applies: MV4-11 cells, 24 h; for DC50: read-out: SMARCA2 MSD MV411 degradation 24 h: Mean external-Abs DC50; for Dmax: read-out: SMARCA2 MSD MV411 degradation 24 h: average Dmax %.

Another assay deals with T2, SMARCA4 (Homo sapiens, UniProt P51532).
T2 construct: SMARCA2/SMARCA4 protein degradation selectivity in MV4-11 cells; endogenous in cells; host or cells: MV4-11
T2 sequence (P51532 whole entry): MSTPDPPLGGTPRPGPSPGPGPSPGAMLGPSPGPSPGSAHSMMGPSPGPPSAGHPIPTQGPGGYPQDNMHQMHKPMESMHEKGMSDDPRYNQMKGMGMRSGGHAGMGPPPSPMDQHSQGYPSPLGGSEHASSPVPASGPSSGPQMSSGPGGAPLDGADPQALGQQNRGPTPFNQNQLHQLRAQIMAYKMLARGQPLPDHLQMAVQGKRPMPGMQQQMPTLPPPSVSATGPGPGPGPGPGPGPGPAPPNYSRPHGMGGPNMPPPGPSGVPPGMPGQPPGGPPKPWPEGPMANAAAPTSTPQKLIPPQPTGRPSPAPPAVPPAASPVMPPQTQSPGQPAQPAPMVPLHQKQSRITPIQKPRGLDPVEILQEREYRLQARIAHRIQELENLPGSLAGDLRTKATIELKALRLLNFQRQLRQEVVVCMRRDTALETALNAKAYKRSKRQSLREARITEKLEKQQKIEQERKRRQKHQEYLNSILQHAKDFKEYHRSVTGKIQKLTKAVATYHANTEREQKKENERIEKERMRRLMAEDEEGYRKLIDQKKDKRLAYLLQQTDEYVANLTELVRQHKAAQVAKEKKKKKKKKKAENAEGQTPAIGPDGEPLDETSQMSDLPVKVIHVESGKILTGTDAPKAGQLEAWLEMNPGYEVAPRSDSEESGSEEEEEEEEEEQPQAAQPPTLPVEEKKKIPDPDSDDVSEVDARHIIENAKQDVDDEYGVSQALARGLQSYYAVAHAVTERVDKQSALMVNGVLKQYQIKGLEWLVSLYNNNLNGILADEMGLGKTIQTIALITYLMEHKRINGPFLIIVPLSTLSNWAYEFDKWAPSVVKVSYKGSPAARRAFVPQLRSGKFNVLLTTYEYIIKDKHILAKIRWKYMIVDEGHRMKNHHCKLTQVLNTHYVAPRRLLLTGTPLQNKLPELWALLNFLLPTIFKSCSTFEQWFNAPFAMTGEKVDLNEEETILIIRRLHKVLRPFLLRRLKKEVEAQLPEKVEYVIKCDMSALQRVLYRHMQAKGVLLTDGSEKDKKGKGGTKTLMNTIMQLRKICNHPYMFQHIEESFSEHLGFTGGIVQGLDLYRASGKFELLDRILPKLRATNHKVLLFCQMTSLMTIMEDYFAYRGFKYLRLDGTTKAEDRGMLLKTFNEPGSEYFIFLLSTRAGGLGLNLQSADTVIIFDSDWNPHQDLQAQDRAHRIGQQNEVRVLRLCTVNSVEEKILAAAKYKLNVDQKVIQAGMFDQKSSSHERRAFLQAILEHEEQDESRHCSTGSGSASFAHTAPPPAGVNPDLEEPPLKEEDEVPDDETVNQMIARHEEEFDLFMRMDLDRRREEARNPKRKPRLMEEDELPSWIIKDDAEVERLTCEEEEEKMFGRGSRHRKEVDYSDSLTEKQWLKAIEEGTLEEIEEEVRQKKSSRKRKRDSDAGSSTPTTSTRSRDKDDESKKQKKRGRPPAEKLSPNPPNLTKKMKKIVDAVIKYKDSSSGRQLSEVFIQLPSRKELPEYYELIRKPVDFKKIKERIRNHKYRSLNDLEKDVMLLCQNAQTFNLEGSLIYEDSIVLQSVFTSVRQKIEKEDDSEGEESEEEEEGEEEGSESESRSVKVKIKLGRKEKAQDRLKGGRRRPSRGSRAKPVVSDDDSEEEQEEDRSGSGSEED
The assay can be described thus: SMARCA4 Western blot MV4-11 degradation. The following applies: MV4-11 cells, 24 h; for DC50: read-out: SMARCA4 MSD MV411 degradation 24 h: Mean external-Abs DC50; for Dmax: read-out: SMARCA4 MSD MV411 degradation 24 h: average Dmax %. The procedure:
Cells were seeded into 6-well plates (MV4-11: 4×10^6 cells/well/1 ml) and 1 ml of 2× compound solution was added into the well to make the final concentration and the plates were mixed well and incubated for 24 hours (No cytotoxicity was observed). The cell were collected with media and spun at 3000 rpm for 5 minutes. The supernatant was aspirated and the well and the cells were washed with cold PBS once and combined for centrifugation again; the supernatant aspirated again. 200 uL pre-chilled RIPA lysis buffer (Boston BioProducts BP-115D) with protease/phosphatase inhibitor (Roche 05892791001/Roche 04906837001) was directly added into the tube to lyze the cells for 20 minutes on ice. The cell lysate were collected into EP tubes and spun at 13000 rpm for 20 minutes and 72 uL supernatant was transferred to a fresh EP tube containing 18 uL of 5× loading buffer (Beyotime Bio P0015) to make the loading samples. The samples were heated to 100° C. for 10 minutes and cooled to RT and microcentrifuged. 20 uL of samples were loaded onto SDS-PAGE gel (Novex, WG1402BOX) and the gel was run at 80 V for 20 minutes and 120 V for 1.5 hours. The samples were electrotransfer to a NC membrane using wet-transfer method with 250 mA for 2.5 hours. The membrane was blocked with LICOR blocking buffer (LICOR, 927-50000) for 1 hour. The membrane was washed three times with TBST(CST #9997S), 5 minutes each. Incubation was performed with primary antibody prepared in blocking buffer with 0.1% Tween-20 (Solarbio, P8220) at 4° C. overnight (Anti-SMARCA2/BRM antibody (ab15597) 1:500; Anti-BRG1 antibody [EPR3912] (ab108318) 1:1000; Rabbit anti-Baf180 antibody [EPR15860] (Abeam,ab 196022) 1:1000; mouse anti-beta-Actin (8H10D10) (CST #3700) 1:10000). The membrane was washed three times with TBST, 5 minutes each. Incubation with secondary antibody was performed for 1 hour at RT (anti-rabbit IgG (Licor, 926-32211) 1:5000; anti-mouse IgG (LI-COR, 926-68070) 1:5000). The membrane was washed three times with 5 minutes each and lastly the LiCOR was read.
The letter codes for SMARCA2/4 degradation potency (DC50) include: A (<100 nM), B (100-500 nM), C (501-1000 nM), and D (>1000 nM). The letter codes for the percentage of SMARCA degradation after 24 hours (Dmax %) include: A (>90% degradation), B (>70-90% degradation), C (50-70% degradation), and D (<50% degradation).
(In general: Immunoblotting shows a protein as a band on a membrane.)

For orientation: Dmax means the greatest extent of degradation seen. The DC50 is the concentration at which degradation of the target reaches its halfway point.

The structures appear in SMILES notation.

Turning to `Cc1ncsc1-c1ccc(CNC(=O)[C@@H]2C[C@@H](O)CN2C(=O)[C@@H](NC(=O)C2CC3(C2)CC(N2CCC(c4cnc(N5CCc6[nH]c7nnc(-c8ccccc8O)cc7c6[C@@H]5C)nc4)CC2)C3)C(C)(C)C)cc1` (stereo partly drawn) [I-37, (2S,4R)-4-hydroxy-1-((S)-2-(6-(4-(2-((S)-3-(2-hydroxyphenyl)-5-methyl-7,8-dihydro-5H-pyrido[3′,4′:4,5]pyrrolo[2,3-c]pyridazin-6(9H)-yl)pyrimidin-5-yl)piperidin-1-yl)spiro[3.3]heptane-2-carboxamido)-3,3-dimethylbutanoyl)-N-(4-(4-methylthiazol-5-yl)benzyl)pyrrolidine-2-carboxamide], on SMARCA2 [1], the greatest degradation seen (Dmax) is 70 to 90% and the DC50 lay within 100 to 500 nM. In addition, at SMARCA2 [2], the 50% degradation concentration (DC50) lay within 100 to 500 nM and the greatest degradation seen (Dmax) was in the range of 50 to 70%.

Consider `Cc1ncsc1-c1ccc(CNC(=O)[C@@H]2C[C@@H](O)CN2C(=O)[C@@H](NC(=O)C2CC3(C2)CC(N2CCC(c4cnc(N5CCc6[nH]c7nnc(-c8ccccc8O)cc7c6[C@H]5C)nc4)CC2)C3)C(C)(C)C)cc1` (stereo partly drawn) [I-38, (2S,4R)-4-hydroxy-1-((S)-2-(6-(4-(2-((R)-3-(2-hydroxyphenyl)-5-methyl-7,8-dihydro-5H-pyrido[3′,4′:4,5]pyrrolo[2,3-c]pyridazin-6(9H)-yl)pyrimidin-5-yl)piperidin-1-yl)spiro[3.3]heptane-2-carboxamido)-3,3-dimethylbutanoyl)-N-(4-(4-methylthiazol-5-yl)benzyl)pyrrolidine-2-carboxamide], for which the results for the Dmax on SMARCA2 [1], at SMARCA4 and at SMARCA2 [2] were greater than 90%, less than 50% and 70 to 90%, respectively. Moreover, the half-maximal degradation concentration (DC50) on SMARCA2 [1] is less than 100 nM; at SMARCA4, greater than 1000 nM; at SMARCA2 [2], less than 100 nM.

As to `Cc1ncsc1-c1ccc(CNC(=O)[C@@H]2C[C@@H](O)CN2C(=O)[C@@H](NC(=O)[C@H]2CC3(C2)C[C@H](N2CCC(c4cnc(N5CCc6[nH]c7nnc(-c8ccccc8O)cc7c6[C@H]5C)nc4)CC2)C3)C(C)(C)C)cc1` (single isomer, unassigned) [I-41], the results for the 50% degradation concentration (DC50) at SMARCA2 [1], on SMARCA4 and on SMARCA2 [2] were 100 to 500 nM, greater than 1000 nM and less than 100 nM, respectively.

For the molecule `Cc1ncsc1-c1ccc(CNC(=O)[C@@H]2C[C@@H](O)CN2C(=O)[C@@H](NC(=O)[C@H]2CC3(C2)C[C@H](N2CCC(c4cnc(N5CCc6[nH]c7nnc(-c8ccccc8O)cc7c6[C@H]5C)nc4)CC2)C3)C(C)(C)C)cc1` (single isomer, unassigned) [I-40], the Dmax was 70 to 90% on SMARCA2 [1], less than 50% on SMARCA4 and 70 to 90% on SMARCA2 [2]. Moreover, the half-maximal degradation concentration (DC50) was 100 to 500 nM at SMARCA2 [1], greater than 1000 nM on SMARCA4 and less than 100 nM on SMARCA2 [2].

On to `Cc1ncsc1-c1ccc(CNC(=O)[C@@H]2C[C@@H](O)CN2C(=O)[C@@H](NC(=O)C2CC3(C2)CC(N2CCC(c4ccnc(N5CCc6[nH]c7nnc(-c8ccccc8O)cc7c6[C@@H]5C)n4)CC2)C3)C(C)(C)C)cc1` (stereo partly drawn) [I-14, (2S,4R)-4-hydroxy-1-((S)-2-(6-(4-(2-((S)-3-(2-hydroxyphenyl)-5-methyl-7,8-dihydro-5H-pyrido[3′,4′:4,5]pyrrolo[2,3-c]pyridazin-6(9H)-yl)pyrimidin-4-yl)piperidin-1-yl)spiro[3.3]heptane-2-carboxamido)-3,3-dimethylbutanoyl)-N-(4-(4-methylthiazol-5-yl)benzyl)pyrrolidine-2-carboxamide], for which the Dmax was in the range of 70 to 90% at SMARCA2 [1], 50 to 70% on SMARCA4 and 70 to 90% on SMARCA2 [2]. Moreover, the DC50 was 100 to 500 nM at SMARCA2 [1], greater than 1000 nM at SMARCA4 and less than 100 nM at SMARCA2 [2].

For `Cc1ncsc1-c1ccc(CNC(=O)[C@@H]2C[C@@H](O)CN2C(=O)[C@@H](NC(=O)C2CC3(C2)CC(N2CCC(c4ccnc(N5CCc6[nH]c7nnc(-c8ccccc8O)cc7c6[C@H]5C)n4)CC2)C3)C(C)(C)C)cc1` (stereo partly drawn) [I-13, (2S,4R)-4-hydroxy-1-((S)-2-(6-(4-(2-((R)-3-(2-hydroxyphenyl)-5-methyl-7,8-dihydro-5H-pyrido[3′,4′:4,5]pyrrolo[2,3-c]pyridazin-6(9H)-yl)pyrimidin-4-yl)piperidin-1-yl)spiro[3.3]heptane-2-carboxamido)-3,3-dimethylbutanoyl)-N-(4-(4-methylthiazol-5-yl)benzyl)pyrrolidine-2-carboxamide], the results for the Dmax at SMARCA2 [1], on SMARCA4 and on SMARCA2 [2] were less than 50%, 50 to 70% and 50 to 70%, respectively. Moreover, the results for the DC50 on SMARCA2 [1], on SMARCA4 and at SMARCA2 [2] were greater than 1000 nM, greater than 1000 nM and 501 to 1000 nM, respectively.
